Common to all, as to format: functional
The nature of experiment [1]: % helicity of the compound.
Experiment [2] has as its system Mus musculus. The experiment is described as follows: In vivo antimicrobial activity of 500 microg peptide against Brucella abortus in chronically infected BALB/c mice.
Another experiment deals with Staphylococcus aureus. The experiment is described as follows: In vitro antibacterial activity of the peptide was tested against Staphylococcus aureus.
The test system of the next experiment is Escherichia coli. The experiment in a line: In vitro antibacterial activity of the peptide was tested against Escherichia coli.
The test system of experiment [3] is Mus musculus. The experiment in a line: In vivo antimicrobial activity of 1 mg peptide against Brucella abortus in chronically infected BALB/c mice.

The values below come from ChEMBL document CHEMBL1129634, “Antimicrobial alpha, alpha-dialkylated amino acid rich peptides with in-vivo activity against an intracellular pathogen” (1996).

Converted amounts (≈) assume the structure as drawn. Where a SMILES comes first, the peptide text is derived from it. [ ]: non-standard residue; d: D form. Ac6c = NC1(C(=O)O)CCCCC1; Api = NC1(C(=O)O)CCNCC1; Aib = CC(C)(N)C(=O)O A value given as a limit tells only on which side of the number the result lay.

In turn, `CC(C)(N)C(=O)NC(C)(C)C(=O)N[C@@H](CCCCN)C(=O)N[C@H](CCCCN)C(=O)NC(C)(C)C(=O)NC(C)(C)C(=O)N[C@@H](CCCCN)C(=O)NC(C)(C)C(=O)NC(C)(C)C(=O)N[C@H](CCCCN)C(=O)N[C@@H](CCCCN)C(=O)NC(C)(C)C(=O)NC(C)(C)C(=O)N[C@H](CCCCN)C(=O)O` gave a Helicity in experiment [1] of 42%.
`CC(C)(N)C(=O)NC(C)(C)C(=O)N[C@@H](CCCCN)C(=O)N[C@H](CCCCN)C(=O)NC(C)(C)C(=O)NC(C)(C)C(=O)N[C@@H](CCCCN)C(=O)NC(C)(C)C(=O)NC(C)(C)C(=O)N[C@H](CCCCN)C(=O)N[C@@H](CCCCN)C(=O)O` returned a Helicity in experiment [1] of 35%.
In turn, `CC(C)(N)C(=O)NC(C)(C)C(=O)N[C@H](CCCCN)C(=O)NC1(C(=O)NC(C)(C)C(=O)NC(C)(C)C(=O)N[C@H](CCCCN)C(=O)NC2(C(=O)NC(C)(C)C(=O)NC(C)(C)C(=O)O)CCNCC2)CCNCC1` showed a Helicity in experiment [1] of 43%.
In turn, `NCCCC[C@H](NC(=O)[C@@H](CCCCN)NC(=O)C1(NC(=O)C2(NC(=O)[C@H](CCCCN)NC(=O)C3(NC(=O)C4(NC(=O)[C@@H](CCCCN)NC(=O)[C@H](CCCCN)NC(=O)C5(N)CCCCC5)CCCCC4)CCCCC3)CCCCC2)CCCCC1)C(=O)O` registered a Helicity in experiment [1] of 43%.
In turn, `CC(=O)N[C@@H](CCCCN)C(=O)N[C@@H](CCCCN)C(=O)NC(C)(C)C(=O)NC(C)(C)C(=O)N[C@@H](CCCCN)C(=O)NC(C)(C)C(=O)NC(C)(C)C(=O)N[C@@H](CCCCN)C(=O)N[C@@H](CCCCN)C(=O)NC(C)(C)C(=O)NC(C)(C)C(N)=O` (Ac-KK[Aib][Aib]K[Aib][Aib]KK[Aib][Aib]-NH2) had a Reduction in the experiment on Mus musculus [2] of 30%. Besides, the minimal inhibitory concentration (MIC) was 212 µM (≈ 257 µg/mL) against Staphylococcus aureus and 6.6 µM (≈ 7.99 µg/mL) with Escherichia coli.
With `NCCCC[C@H](NC(=O)[C@H](CCCCN)NC(=O)C1(NC(=O)C2(NC(=O)[C@H](CCCCN)NC(=O)C3(NC(=O)C4(NC(=O)[C@H](CCCCN)NC(=O)[C@@H](N)CCCCN)CCCCC4)CCCCC3)CCCCC2)CCCCC1)C(=O)NC1(C(N)=O)CCCCC1` (H-KK[Ac6c][Ac6c]K[Ac6c][Ac6c]KK[Ac6c]-NH2), the minimum inhibitory concentration (MIC) against Staphylococcus aureus was found to be 2.8 µM (≈ 3.59 µg/mL); with Escherichia coli, 5.7 µM (≈ 7.32 µg/mL).
Regarding `NCCCC[C@H](NC(=O)[C@H](CCCCN)NC(=O)C1(NC(=O)C2(NC(=O)[C@H](CCCCN)NC(=O)C3(NC(=O)C4(NC(=O)[C@H](CCCCN)NC(=O)[C@@H](N)CCCCN)CCCCC4)CCCCC3)CCCCC2)CCCCC1)C(=O)NC1(C(=O)NC2(C(N)=O)CCCCC2)CCCCC1` (H-KK[Ac6c][Ac6c]K[Ac6c][Ac6c]KK[Ac6c][Ac6c]-NH2), the MIC with Staphylococcus aureus came out at 2.6 µM (≈ 3.66 µg/mL); with Escherichia coli it was 5.2 µM (≈ 7.33 µg/mL).
As to `CC(C)(NC(=O)C(C)(C)NC(=O)[C@H](CCCCN)NC(=O)[C@H](CCCCN)NC(=O)C(C)(C)NC(=O)C(C)(C)NC(=O)[C@H](CCCCN)NC(=O)C(C)(C)NC(=O)C(C)(C)NC(=O)[C@H](CCCCN)NC(=O)[C@@H](N)CCCCN)C(N)=O` (H-KK[Aib][Aib]K[Aib][Aib]KK[Aib][Aib]-NH2), the Reduction in the experiment on Mus musculus [2] is listed as less than 63%. The minimal inhibitory concentration (MIC) against Staphylococcus aureus is more than 220 µM; in the experiment with Escherichia coli, 55 µM (≈ 64.3 µg/mL).
As to `NCCCC[C@H](NC(=O)[C@H](CCCCN)NC(=O)C1(NC(=O)C2(NC(=O)[C@H](CCCCN)NC(=O)C3(NC(=O)C4(NC(=O)[C@H](CCCCN)NC(=O)[C@H](CCCCN)NC(=O)C5(NC(=O)C6(NC(=O)[C@@H](N)CCCCN)CCCCC6)CCCCC5)CCCCC4)CCCCC3)CCCCC2)CCCCC1)C(=O)NC1(C(N)=O)CCCCC1` (H-K[Ac6c][Ac6c]KK[Ac6c][Ac6c]K[Ac6c][Ac6c]KK[Ac6c]-NH2), the results for the minimal inhibitory concentration (MIC) with Staphylococcus aureus and in the experiment on Escherichia coli were 2.2 µM (≈ 3.66 µg/mL) and 4.5 µM (≈ 7.48 µg/mL), respectively.
Molecule `CC(C)(NC(=O)C(C)(C)NC(=O)[C@H](CCCCN)NC(=O)[C@H](CCCCN)NC(=O)C(C)(C)NC(=O)C(C)(C)NC(=O)[C@H](CCCCN)NC(=O)C(C)(C)NC(=O)C(C)(C)NC(=O)[C@H](CCCCN)NC(=O)[C@H](CCCCN)NC(=O)C(C)(C)NC(=O)C(C)(C)NC(=O)[C@@H](N)CCCCN)C(N)=O` (H-K[Aib][Aib]KK[Aib][Aib]K[Aib][Aib]KK[Aib][Aib]-NH2) gave a Reduction in the experiment with Mus musculus [2] of less than 73%. Besides, the values for the MIC against Staphylococcus aureus and against Escherichia coli were 11 µM (≈ 16.1 µg/mL) and 5.5 µM (≈ 8.07 µg/mL), respectively.
On the same counts, the results for `CC(C)(N)C(=O)NC(C)(C)C(=O)NC1(C(=O)N[C@@H](CCCCN)C(=O)NC(C)(C)C(=O)NC(C)(C)C(=O)NC2(C(=O)N[C@@H](CCCCN)C(=O)NC(C)(C)C(=O)NC(C)(C)C(N)=O)CCNCC2)CCNCC1` (H-[Aib][Aib][Api]K[Aib][Aib][Api]K[Aib][Aib]-NH2) are 90%, 123 µM (≈ 127 µg/mL) and 7.7 µM (≈ 7.98 µg/mL).
As for H-KAAKKAAKAAKKAA-NH2, the Reduction in the experiment with Mus musculus [3] is reported as 6%. The minimal inhibitory concentration (MIC) with Staphylococcus aureus and against Escherichia coli was more than 178 µM each time.

By MIC is commonly meant the lowest concentration found to suppress growth.
